Assay results reported in ChEMBL document CHEMBL5500393, “Discovery and Optimization of Novel SaFabI Inhibitors as Specific Therapeutic Agents for MRSA Infection” (J Med Chem, 2024).
Converted amounts (≈) assume the structure as drawn. The source made the active and inactive calls. No cut-off for these calls is given here.

Columns and labels:
[1] = target: T1, Enoyl-[acyl-carrier-protein] reductase [NADPH] FabI (Staphylococcus aureus) (UniProt Q6GI75); experiment: Inhibition of N-terminal his 6 tagged Staphylococcus aureus Fabi (1 to […] residues) expressed in Escherichia coli BL21 at 10 uM incubated for 30 mins in presence of NADPH by fluorescence based microplate reader analysis relative to control
T1 sequence (whole entry): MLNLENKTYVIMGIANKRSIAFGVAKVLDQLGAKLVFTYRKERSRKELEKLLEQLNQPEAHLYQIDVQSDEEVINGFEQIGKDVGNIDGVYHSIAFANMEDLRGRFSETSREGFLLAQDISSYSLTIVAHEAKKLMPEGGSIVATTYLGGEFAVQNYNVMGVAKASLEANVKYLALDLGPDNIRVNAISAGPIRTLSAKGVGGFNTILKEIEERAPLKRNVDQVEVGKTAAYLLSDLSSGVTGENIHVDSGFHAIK

[2] = tested on: Staphylococcus aureus; experiment: Antimicrobial activity against […] Staphylococcus aureus ATCC33591 measured after 24 hrs by CLSI protocol based microdilution method; type: functional
[3] = tested on: Staphylococcus aureus; experiment: Antimicrobial activity against […] Staphylococcus aureus USA300 measured after 24 hrs by CLSI protocol based microdilution method; type: functional
[4] = tested on: Staphylococcus aureus; experiment: Antimicrobial activity against […] Staphylococcus aureus NRS271 measured after 24 hrs by CLSI protocol based microdilution method; type: functional
[5] = tested on: Enterococcus faecalis; experiment: Antimicrobial activity against Enterococcus faecalis ATCC29212 measured after 24 hrs by CLSI protocol based microdilution method; type: functional
[6] = tested on: Pseudomonas aeruginosa; experiment: Antimicrobial activity against Pseudomonas aeruginosa PAO1 measured after 24 hrs by CLSI protocol based microdilution method; type: functional
[7] = tested on: Acinetobacter baumannii; experiment: Antimicrobial activity against Acinetobacter baumannii ATCC19606 measured after 24 hrs by CLSI protocol based microdilution method; type: functional
[8] = Cytotoxicity against HEK293 cells assessed as survival rate at 400 uM measured after 48 hrs by CCK-8 method relative to control; type: toxicity, cell-based; conditions: human, read-out: Survival
[9] = tested on: HepG2; experiment: Cytotoxicity against human HepG2 cells assessed as survival rate at 800 uM measured after 48 hrs by CCK-8 method relative to control; type: functional; conditions: read-out: Survival
[10] = Hemolytic activity in sheep erythrocytes assessed as hemolysis at 64 ug/ml incubated for 1 hr by microplate reader based analysis relative to control; type: toxicity, cell-based, Ovis aries, Erythrocyte; conditions: at 64 µg/mL, read-out: Activity
[11] = Hemolytic activity in sheep erythrocytes assessed as hemolysis at 128 ug/ml incubated for 1 hr by microplate reader based analysis relative to control; type: toxicity, cell-based, Ovis aries, Erythrocyte; conditions: at 128 µg/mL, read-out: Activity
[12] = Hemolytic activity in sheep erythrocytes assessed as hemolysis incubated for 1 hr by microplate reader based analysis; type: toxicity, cell-based, Ovis aries, Erythrocyte
[13] = tested on: Staphylococcus aureus; experiment: Antimicrobial activity against Staphylococcus aureus measured after 24 hrs by CLSI protocol based microdilution method; type: functional
[14] = tested on: Staphylococcus aureus; experiment: Bactericidal activity against […] Staphylococcus aureus ATCC33591 assessed as log reduction in bacterial count at 2 times MIC measured within 8 to 12 hrs by time-kill assay; type: functional; conditions: time 8-12 hrs
[15] = tested on: Staphylococcus aureus; experiment: Bactericidal activity against […] Staphylococcus aureus ATCC33591 assessed as reduction in bacterial count at 4 times MIC measured within 24 hrs by time-kill assay; type: functional, organism-based
[16] = tested on: Staphylococcus aureus; experiment: Bactericidal activity against […] Staphylococcus aureus ATCC33591 assessed as reduction in bacterial count at 8 times MIC measured within 8 to 12 hrs by time-kill assay; type: functional, organism-based; conditions: time 8-12 hrs
[17] = tested on: Cell membrane; experiment: Induction of cell membrane permeability in methicillin-resistant Staphylococcus aureus ATCC33591 assessed as increase in fluorescence measured after 30 mins by Annexin V-FITC staining based analysis; type: cell membranes
[18] = tested on: Cell membrane; experiment: Induction of cell membrane permeability in methicillin-resistant Staphylococcus aureus ATCC33591 assessed as fold increase in fluorescence intensity at 0.5 times MIC measured after 30 mins by 7-AAD staining based analysis; type: cell membranes
[19] = tested on: Cell membrane; experiment: Induction of cell membrane permeability in methicillin-resistant Staphylococcus aureus ATCC33591 assessed as fold increase in fluorescence intensity at 0.25 times MIC measured after 30 mins by Annexin V-FITC staining based analysis; type: cell membranes
[20] = tested on: Cell membrane; experiment: Induction of cell membrane permeability in methicillin-resistant Staphylococcus aureus ATCC33591 assessed as fold increase in fluorescence intensity at 1 times MIC measured after 30 mins by Annexin V-FITC staining based analysis; type: cell membranes
[21] = tested on: Cell membrane; experiment: Induction of cell membrane damage in methicillin-resistant Staphylococcus aureus ATCC33591 assessed as outflow of cytoplasmic content at 1 times MIC measured after 30 mins by TEM analysis; type: cell membranes
[22] = tested on: Staphylococcus aureus; experiment: Antimicrobial activity against […] Staphylococcus aureus ATCC33591 assessed as reduction in lipid content at 8 times MIC measured after 4 hrs by microplate reader based analysis; type: functional, organism-based
[23] = tested on: Staphylococcus aureus; experiment: Antimicrobial activity against wild type Staphylococcus aureus RN4220 measured after 24 hrs by CLSI protocol based microdilution method; type: functional
[24] = Acute toxicity in female BALB/c mouse assessed as animal death at 800 mg/kg, po measured after 14 days; type: organism-based; conditions: in vivo, 336 h, time 14 day
[25] = Acute toxicity in female BALB/c mouse assessed as effect on AST level in serum at 800 mg/kg, po measured after 14 days; type: organism-based; conditions: in vivo, 336 h, time 14 day
[26] = Acute toxicity in female BALB/c mouse assessed as effect on CREA level in serum at 800 mg/kg, po measured after 14 days; type: organism-based; conditions: in vivo, 336 h, time 14 day
[27] = Acute toxicity in female BALB/c mouse assessed as effect on UREA level in serum at 800 mg/kg, po measured after 14 days; type: organism-based; conditions: in vivo, 336 h, time 14 day
[28] = Drug concentration in BALB/c mouse plasma at 800 mg/kg, po measured after 1 hr by LC-MS analysis; type: ADME, organism-based
[29] = Drug concentration in BALB/c mouse plasma at 1200 mg/kg, po measured after 1 hr by LC-MS analysis; type: ADME, organism-based
[30] = Metabolic stability in human liver microsomes assessed as intrinsic clearance at 1 uM measured upto 120 mins in presence of NADPH by LC-MS analysis; type: ADME, Microsome; conditions: read-out: CLH
[31] = Metabolic stability in mouse liver microsomes assessed as half life at 1 uM measured upto 120 mins in presence of NADPH by LC-MS analysis; type: ADME, Microsome
[32] = Metabolic stability in mouse liver microsomes assessed as intrinsic clearance at 1 uM measured upto 120 mins in presence of NADPH by LC-MS analysis; type: ADME, Microsome; conditions: read-out: CLH
[33] = Cmax in female Sprague-Dawley rat at 5 mg/kg, iv measured upto 24 hrs by LC-MS analysis; type: ADME, organism-based; conditions: in vivo
[34] = Cmax in female Sprague-Dawley rat at 20 mg/kg, po measured upto 24 hrs by LC-MS analysis; type: ADME, organism-based; conditions: in vivo
[35] = Half life in female Sprague-Dawley rat at 20 mg/kg, po measured upto 24 hrs by LC-MS analysis; type: ADME, organism-based; conditions: in vivo
[36] = AUC (0 to t) in female Sprague-Dawley rat at 20 mg/kg, po measured upto 24 hrs by LC-MS analysis; type: ADME, organism-based; conditions: in vivo
[37] = Oral bioavailability in female Sprague-Dawley rat at 20 mg/kg measured upto 24 hrs by LC-MS analysis; type: ADME, organism-based; conditions: in vivo

| SMILES | inhibition [1] | MIC [2] | MIC [3] | MIC [4] | MIC [5] | MIC [6] | MIC [7] | viability at 48 h, 400 µM [8] | viability at 800 µM [9] | hemolysis at 1 h, 64 ug/ml [10] | hemolysis at 1 h, 128 ug/ml [11] | HC50 at 1 h [12] | MIC [13] | log(activity) [14] | Activity [15] | Activity [16] | Activity [17] | fold change (FC) [18] | fold change (FC) [19] | fold change (FC) [20] | further results |
| --- | --- | --- | --- | --- | --- | --- | --- | --- | --- | --- | --- | --- | --- | --- | --- | --- | --- | --- | --- | --- | --- |
| Cc1c(Br)cccc1N1CC(c2nc3ccccc3n2C)CC1=O (centres undefined) | 98.7% | 1 µg/mL (≈ 2.6 µM) | 1 µg/mL (≈ 2.6 µM) | 2 µg/mL (≈ 5.2 µM) | > 32 µg/mL | > 32 µg/mL | > 32 µg/mL | > 70% | > 75% | 3.1% | 5% | > 256 µg/mL | 1 µg/mL (≈ 2.6 µM) | 3.2 | Below limit of detection | Below limit of detection | Active | 1.6 | 1.3 | 2.6 | Activity [21]: Active; Activity [22]: Active; MIC [23]: 2 µg/mL (≈ 5.2 µM); Activity [24]: Non-Toxic; Activity [25]: Non-Toxic; Activity [26]: Non-Toxic; Activity [27]: Non-Toxic; concentration at 1 h [28]: 53600 ng/mL; concentration at 1 h [29]: 72.1 µg/mL; CLint scaled at 1 µM [30]: 27.3 mL/min/kg; half-life at 1 µM [31]: 27.7 min; CLint scaled at 1 µM [32]: 197 mL/min/kg; Cmax [33]: 3.25 µg/mL; Cmax [34]: 1.52 µg/mL; t1/2 [35]: 8.7 h; AUCt [36]: 11.1491 µg·h/mL; bioavailability [37]: 86.1% |
| COc1c(Br)cccc1N1CC(c2nc3ccccc3n2C)CC1=O (centres undefined) | 99.3% | 1 µg/mL (≈ 2.5 µM) | 1 µg/mL (≈ 2.5 µM) | 2 µg/mL (≈ 5 µM) | > 32 µg/mL | > 32 µg/mL | > 32 µg/mL | > 70% | > 65% | 1.9% | 3.4% | > 256 µg/mL | 1 µg/mL (≈ 2.5 µM) | 2.3 | Below limit of detection | Below limit of detection | Active | 1.5 | 1.4 | 2.4 | Activity [21]: Active; Activity [22]: Active; MIC [23]: 2 µg/mL (≈ 5 µM); Activity [24]: Non-Toxic; Activity [25]: Non-Toxic; Activity [26]: Non-Toxic; Activity [27]: Non-Toxic; concentration at 1 h [28]: 32700 ng/mL; concentration at 1 h [29]: 46.5 µg/mL; CLint scaled at 1 µM [30]: 45.4 mL/min/kg; half-life at 1 µM [31]: 13.2 min; CLint scaled at 1 µM [32]: 414 mL/min/kg; Cmax [33]: 2.72 µg/mL; Cmax [34]: 1.27 µg/mL; t1/2 [35]: 9.3 h; AUCt [36]: 3.127 µg·h/mL; bioavailability [37]: 34.5% |
